According to US10750743B2, “Pyridazinone herbicides” (E.I. DU PONT DE NEMOURS AND COMPANY, priority 2015, dated 2020):

Experiments:
Assay type in all cases: in vivo
kochia (Kochia scoparia) [1] = assay: Test A preemergence, directed soil spray, visual injury rating; details: 0 is no effect, 100 is complete control
How it was run: (§1)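 Compounds in a surfactant-containing solvent were applied as a directed soil spray preemergence, or postemergence to plants 2-10 cm tall at the one- to two-leaf stage, in loam-sand blend. After about 10 d in the greenhouse, injury was rated visually against untreated controls on a 0-100 scale (100 = complete control).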

[2] = test system: barnyardgrass (Echinochloa crus-galli); assay: as above; details: 0 is no effect, 100 is complete control
How it was run: as §1

[3] = test system: ryegrass, It. (Italian ryegrass, Lolium multiflorum); assay: as above; details: 0 is no effect, 100 is complete control
How it was run: as §1

[4] = test system: ragweed (common ragweed, Ambrosia elatior); assay: as above; details: 0 is no effect, 100 is complete control
How it was run: as §1

[5] = test system: pigweed (Amaranthus retroflexus); assay: as above; details: 0 is no effect, 100 is complete control
How it was run: as §1

[6] = test system: foxtail, giant (giant foxtail, Setaria faberii); assay: as above; details: 0 is no effect, 100 is complete control
How it was run: as §1

[7] = test system: ducksalad (Heteranthera limosa); assay: Test B flooded paddy test, visual rating; details: Flood, 250 g ai/ha, applied to paddy water, rated after 13 to 15 d
Method: (§2) Plant species in the flooded paddy test selected from rice (Oryza sativa), sedge, umbrella (small-flower umbrella sedge, Cyperus difformis), ducksalad (Heteranthera limosa), and barnyardgrass (Echinochloa crus-galli) were grown to the 2-leaf stage for testing. At time of treatment, test pots were flooded to 3 cm above the soil surface, treated by application of test compounds directly to the paddy water, and then maintained at that water depth for the duration of the test. Treated plants and controls were maintained in a greenhouse for 13 to 15 d, after which time all species were compared to controls and visually evaluated. Plant response ratings, summarized in Table B, are based on a scale of 0 to 100 where 0 is no effect and 100 is complete control. A dash (-) response means no test result.

[8] = test system: barnyardgrass (Echinochloa crus-galli); assay: Test B flooded paddy test, visual rating; details: Flood, 250 g ai/ha, applied to paddy water, rated after 13 to 15 d
Method: as §2

[9] = test system: sedge, umbrella (small-flower umbrella sedge, Cyperus difformis); assay: Test B flooded paddy test, visual rating; details: Flood, 250 g ai/ha, applied to paddy water, rated after 13 to 15 d
Method: as §2

rice (Oryza sativa) = assay: Test B flooded paddy test, visual rating; details: Flood, 250 g ai/ha, applied to paddy water, rated after 13 to 15 d
Method: as §2

kochia (Kochia scoparia) [10] = assay: Test A postemergence application, visual injury rating; details: for Kochia plant response rating: 0 to 100 scale, 0 no effect, 100 complete control
How it was run: as §1

[11] = test system: barnyardgrass (Echinochloa crus-galli); assay: as above; details: 0 to 100 scale, 0 no effect, 100 complete control
How it was run: as §1

[12] = test system: blackgrass (Alopecurus myosuroides); assay: as above; details: 0 to 100 scale, 0 no effect, 100 complete control
How it was run: as §1

[13] = test system: ryegrass, It. (Italian ryegrass, Lolium multiflorum); assay: as above; details: for Ryegrass, It. plant response rating: 0 to 100 scale, 0 no effect, 100 complete control
How it was run: as §1

[14] = test system: wheat (Triticum aestivum); assay: as above; details: for Wheat plant response rating: 0 to 100 scale, 0 no effect, 100 complete control
How it was run: as §1

[15] = test system: galium (catchweed bedstraw, Galium aparine); assay: as above; details: for Galium plant response rating: 0 to 100 scale, 0 no effect, 100 complete control
How it was run: as §1

corn (Zea mays) = assay: as above; details: for Corn plant response rating: 0 to 100 scale, 0 no effect, 100 complete control
How it was run: as §1

[16] = test system: ragweed (common ragweed, Ambrosia elatior); assay: as above; details: for Ragweed plant response rating: 0 to 100 scale, 0 no effect, 100 complete control
How it was run: as §1

[17] = test system: pigweed (Amaranthus retroflexus); assay: as above; details: for Pigweed plant response rating: 0 to 100 scale, 0 no effect, 100 complete control
How it was run: as §1

[18] = test system: foxtail, giant (giant foxtail, Setaria faberii); assay: as above; details: for Foxtail, Giant plant response rating: 0 to 100 scale, 0 no effect, 100 complete control
How it was run: as §1

[19] = 31 g ai/ha, 0 is no effect, 100 is complete control

SMILES | Plant response rating (0 to 100 scale), Kochia (kochia (Kochia scoparia) [1]; 31 g ai/ha) | Plant response rating (0 to 100 scale), Kochia (kochia (Kochia scoparia) [1]; 125 g ai/ha) | Plant response rating (0 to 100 scale), Barnyardgrass ([2]; 31 g ai/ha) | Plant response rating (0 to 100 scale), Barnyardgrass ([2]; 125 g ai/ha) | Plant response rating (0 to 100 scale), Ryegrass, It. ([3]; 31 g ai/ha) | Plant response rating (0 to 100 scale), Ryegrass, It. ([3]; 125 g ai/ha) | Plant response rating (0 to 100 scale), Ragweed ([4]; 31 g ai/ha) | Plant response rating (0 to 100 scale), Ragweed ([4]; 125 g ai/ha) | Plant response rating (0 to 100 scale), Pigweed ([5]; 31 g ai/ha) | Plant response rating (0 to 100 scale), Pigweed ([5]; 125 g ai/ha) | Plant response rating (0 to 100 scale), Foxtail, Giant ([6]; 31 g ai/ha) | Plant response rating (0 to 100 scale), Foxtail, Giant ([6]; 125 g ai/ha) | Ducksalad plant response rating (0 to 100 scale, 0 is no effect, 100 is complete control) [7] | Barnyardgrass plant response rating (0 to 100 scale, 0 is no effect, 100 is complete control) [8] | Sedge, Umbrella plant response rating (0 to 100 scale, 0 is no effect, 100 is complete control) [9] | Rice plant response rating (0 to 100 scale, 0 is no effect, 100 is complete control) (rice (Oryza sativa)) | Kochia plant response rating (kochia (Kochia scoparia) [10]; 125 g ai/ha) | Barnyardgrass plant response rating ([11]; 31 g ai/ha) | Barnyardgrass plant response rating ([11]; 125 g ai/ha) | Blackgrass plant response rating ([12]; 31 g ai/ha) | also measured
Cc1nn(C)c(=O)c(-c2ccc(Cl)c3sccc23)c1O [Compound 63] | 10 | 20 | 0 | 0 | 0 | 20 | 0 | 0 | 0 | 0 | 0 | 0 | 0 | 0 | 0 | 0 | 60 | 0 | 0 | 0 | Plant response rating (0 to 100 scale), Kochia (kochia (Kochia scoparia) [10]; [19]): 0; Blackgrass plant response rating ([12]; 125 g ai/ha): 0; Plant response rating (0 to 100 scale), Ryegrass, It. [13, 19]: 0; Ryegrass, It. plant response rating ([13]; 125 g ai/ha): 10; Plant response rating (0 to 100 scale), Wheat [14, 19]: 0; Wheat plant response rating ([14]; 125 g ai/ha): 0; Plant response rating (0 to 100 scale), Galium [15, 19]: 30; Galium plant response rating ([15]; 125 g ai/ha): 90; Plant response rating (0 to 100 scale), Corn (corn (Zea mays); [19]): 0; Corn plant response rating (corn (Zea mays); 125 g ai/ha): 0; Plant response rating (0 to 100 scale), Ragweed [16, 19]: 0; Ragweed plant response rating ([16]; 125 g ai/ha): 0; Plant response rating (0 to 100 scale), Pigweed [17, 19]: 0; Pigweed plant response rating ([17]; 125 g ai/ha): 50; Plant response rating (0 to 100 scale), Foxtail, Giant [18, 19]: 0; Foxtail, Giant plant response rating ([18]; 125 g ai/ha): 0
CCC(=O)Oc1c(C)nn(C)c(=O)c1-c1ccc(Cl)c2ccsc12 [Compound 36] | 0 | 0 | 0 | 0 | 20 | 90 | 0 | 0 | 0 | 90 | 0 | 0 | 0 | 0 | 80 | 0 | 30 | 0 | 10 | 0 | Kochia plant response rating (kochia (Kochia scoparia) [10]; 31 g ai/ha): 20; Blackgrass plant response rating ([12]; 125 g ai/ha): 0; Ryegrass, It. plant response rating ([13]; 31 g ai/ha): 30; Ryegrass, It. plant response rating ([13]; 125 g ai/ha): 80; Wheat plant response rating ([14]; 31 g ai/ha): 0; Wheat plant response rating ([14]; 125 g ai/ha): 0; Galium plant response rating ([15]; 31 g ai/ha): 90; Galium plant response rating ([15]; 125 g ai/ha): 100; Corn plant response rating (corn (Zea mays); 31 g ai/ha): 0; Corn plant response rating (corn (Zea mays); 125 g ai/ha): 0; Ragweed plant response rating ([16]; 31 g ai/ha): 0; Ragweed plant response rating ([16]; 125 g ai/ha): 0; Pigweed plant response rating ([17]; 31 g ai/ha): 0; Pigweed plant response rating ([17]; 125 g ai/ha): 30; Foxtail, Giant plant response rating ([18]; 31 g ai/ha): 0; Foxtail, Giant plant response rating ([18]; 125 g ai/ha): 0
COC(=O)Oc1c(C)nn(C)c(=O)c1-c1ccc(Cl)c2cc(C)oc12 [Compound 40] | 0 | 0 | 0 | 20 | 80 | 90 | 0 | 50 | 0 | 60 | 0 | 20 | 0 | 0 | 0 | 0 | 0 | 10 | 20 | 0 | Kochia plant response rating (kochia (Kochia scoparia) [10]; 31 g ai/ha): 0; Blackgrass plant response rating ([12]; 125 g ai/ha): 20; Ryegrass, It. plant response rating ([13]; 31 g ai/ha): 40; Ryegrass, It. plant response rating ([13]; 125 g ai/ha): 70; Wheat plant response rating ([14]; 31 g ai/ha): 0; Wheat plant response rating ([14]; 125 g ai/ha): 0; Galium plant response rating ([15]; 31 g ai/ha): 90; Galium plant response rating ([15]; 125 g ai/ha): 100; Corn plant response rating (corn (Zea mays); 31 g ai/ha): 0; Corn plant response rating (corn (Zea mays); 125 g ai/ha): 10; Ragweed plant response rating ([16]; 31 g ai/ha): 20; Ragweed plant response rating ([16]; 125 g ai/ha): 40; Pigweed plant response rating ([17]; 31 g ai/ha): 20; Pigweed plant response rating ([17]; 125 g ai/ha): 40; Foxtail, Giant plant response rating ([18]; 31 g ai/ha): 10; Foxtail, Giant plant response rating ([18]; 125 g ai/ha): 20
